Literature values as cited in US10703699B2, “Solubilization of pterostilbene and resveratrol for aqueous beverages” (Ironstone Separations, Inc., priority 2013, dated 2020).

Experiments:
[1] = animal studies

Compound	bioavailability [1] [%]	Solubility in aqueous media
Oc1ccc(/C=C/c2cc(O)cc(O)c2)cc1 [Resveratrol, 3,5,4′-trihydroxy-trans-stilbene]	20	–
trans-3,5-dimethoxy-4-hydroxystilbene [Pterostilbene]	80	very low
